Measured values reported in article PMC12866797, “Targeting DESI2 as a Novel Therapeutic Strategy for JAK2‐Mutant Leukemias” (Advanced Science, 2025).
pIC50: −log10 of the molar value.

What was measured:
DESI2 [1] = target: T1, DESI2 (Homo sapiens, UniProt Q9BSY9); assay: thermal shift assay; format: binding; settings: 100 µM compound
T1 construct: residues 1-194, pET28a vector, E. coli BL21 (DE3), Ni-NTA purified

JOSD1 = JOSD1 (Homo sapiens, UniProt Q15040); assay: Ub-Rho fluorescence assay; format: biochemical
DESI2 [2] = target: T1, DESI2; assay: Ub-AMC fluorescence assay, initial rate; format: biochemical

T1 sequence (Q9BSY9 whole entry, the tested form may be a part): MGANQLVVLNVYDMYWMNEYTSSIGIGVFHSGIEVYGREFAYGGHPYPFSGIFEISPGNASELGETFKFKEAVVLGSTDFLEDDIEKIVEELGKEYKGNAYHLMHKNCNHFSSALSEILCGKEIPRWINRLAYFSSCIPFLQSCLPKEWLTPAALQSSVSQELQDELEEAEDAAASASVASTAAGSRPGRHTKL

dTm (DESI2 [1]): 3.5 °C
pIC50 (JOSD1): < 5.00
pIC50 (DESI2 [2]): 7.33
SMILES: N#CN1CC[C@H](C(=O)Nc2nc3cc(-c4ccc5c(c4)OCO5)ccc3s2)C1 [WWQ-03-012]
